Data on one compound can be found in patent publication US20120134940A1, “NANODISPERSIONS” (priority 2006, published 2012).

The structures appear in SMILES notation.

For the data set the following is noted: payload material itself.

Source text: By selection of a carrier which is also soluble in both DMSO and one of water, ethanol and PPG (for example PVP/HPC) it is possible to obtain a nano-disperse form of either payload material in the carrier, which can be “dissolved” in water, ethanol or PPG.

As for `COc1cc(C=O)cc(-c2cc(C=O)cc(OC)c2O)c1O` [divanillin], the “solubility in DMSO” value is recorded as “soluble”; the “solubility in water, ethanol and poly-propylene glycol” value is “insoluble”.
